Measured values: patent publication US20230157996A1, “SMALL-MOLECULE INHIBITOR TARGETING EB VIRUS NUCLEAR ANTIGEN PROTEIN, PREPARATION METHOD AND USE THEREOF” (priority 2020, published 2023)
Read-outs that look alike come from different tables or passages of the source.

Legend:
[1] = tested on: C666-1 cells; assay: C666-1 cell viability single concentration (50 μM) inhibition rate (Resazurin); type: cell-based; conditions: Homo sapiens, C6661, 72 h, C666-1 cells
Method in brief: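 Resazurin fluorescence (560/590 nm, 3 h development) gave the proliferation inhibition rate, normalised to DMSO-treated and cell-free blank wells. Compound was tested at a single 50 μmol/L final concentration on C666-1 cells for 72 h at 37° C, with duplicate wells, after 24 h seeding.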

[2] = tested on: C666-1 cells; assay: C666-1 cell viability, EC50 from 8-point dilution (Resazurin); type: cell-based; conditions: 100-0.78 μmol/L, read-out: EC50 Quantitation
Method: In order to assess the effect of the EBNA1 inhibitor at the cellular level, the cytotoxicity assay was performed. The EBNA1 inhibitor selectively killed EBV-positive cell lines ([…]-1 cells), but had no toxicity to EBV-negative cell lines (HONE1 cells and HK1 cells). In the test, 100 μL different cell lines were inoculated in a transparent 96-well plate, each well containing 5×10^3 […]-1 cells. After the cells were cultured in an incubator with 5% carbon dioxide at 37° C. for 24 hours, 10 μL compound at a concentration range from 1 mmol/L to 7.8 μmol/L was added into each well (8 points, 2-fold dilution, the final concentration was 100-0.78 μmol/L), and treated in the incubator with carbon dioxide at 37° C. for 72 hours. The cell viability was assessed using a redox indicator Resazurin. Specifically, 10 μL Resazurin at a concentration of 600 μmol/L was added into each well, and incubated at 37° C. for 3 hours, and a Tecan microplate reader was used to detect the fluorescence signal at an excitation wavelength of 560 nm and an emission wavelength of 590 nm. A software was used to fit the inhibition curve and calculate the concentration for 50% of maximal effect (EC50). The selectivity of compound activity was assessed by comparing the EC50 of EBV-positive and EBV-negative cell lines.

[3] = 50 μM compound, 72 hours, read-out: C666-1 cell viability single concentration (50 μM) inhibition rate, Ratio* (Inh %)
[4] = single concentration, read-out: Inhibition Rate (Inh %)

| SMILES | inhibition at 50 µM [1, 3] | inhibition at 50 µM [1, 4] | EC50 ([2]; Homo sapiens, C6661, 72 h) | EC50 ([2]; 72 hours) |
| --- | --- | --- | --- | --- |
| COC(=O)c1cccc(N2CC(Oc3ccc(COC(=O)OC4CCOCC4)cc3)C2)c1-n1cccc1 [Example 234, Methyl 3-(3-(4-(((((tetrahydro-2H-pyran-4-yl)oxy)carbonyl)oxy)methyl)phenoxy)azetidin-1-yl)-2-(1H-pyrrol-1-yl)benzoate] | > 50% | > 50% | < 50 µM | – |
| CCNC(=O)c1ccc(OC2CN(c3cccc(C(=O)O)c3-n3cccc3)C2)cc1 [Example 264, 3-(3-(4-(ethylcarbamoyl)phenoxy)azetidin-1-yl)-2-(1H-pyrrol-1-yl)benzoic acid] | < 10% | < 10% | > 100 µM | – |
| O=C(O)c1cccc(N2CC(Oc3ccc(Oc4ccc(C(F)(F)F)cc4)cc3)C2)c1-n1cccc1 [Example 292, 3-(3-(4-(4-(trifluoromethyl)phenoxy)phenoxy)azetidin-1-yl)2-(1H-pyrrol-1-yl)benzoic acid] | > 50% | > 50% | < 50 µM | – |
| COC(=O)c1cccc(N2CC(OC(=O)Nc3ccc(Oc4ccccc4)cc3)C2)c1-n1cccc1 [Example 152, Methyl 3-(3-(((4-phenoxyphenyl)carbamoyl)oxy)azetidin-1-yl)-2-(1H-pyrrol-1-yl)benzoate] | < 10% | < 10% | > 100 µM | – |
| COC(=O)c1cccc(N2CC(OC(=O)NCc3ccc(C(F)(F)F)cc3)C2)c1-n1cccc1 [Example 154, Methyl 2-(1H-pyrrol-1-yl)-3-(3-(((4-(trifluoromethyl)benzyl)carbamoyl)oxy)azetidin-1-yl)benzoate] | 10 to 30% | 10 to 30% | > 100 µM | – |
| COC(=O)c1cccc(N2CC(OC(=S)Nc3ccc(Cl)cc3)C2)c1-n1cccc1 [Example 147, Methyl 3-(3-(((4-chlorophenyl)thiocarbamoyl)oxy)azetidin-1-yl)-2-(1H-pyrrol-1-yl)benzoate] | 30 to 50% | 30 to 50% | 50 to 75 µM | – |
| O=C(O)c1cccc(N2CC(Oc3ccc(C(=O)N4CCOCC4)cc3)C2)c1-n1cccc1 [Example 266, 3-(3-(4-(morpholinyl-4-carbonyl)phenoxy)azetidin-1-yl)-2-(1H-pyrrol-1-yl)benzoic acid] | < 10% | < 10% | > 100 µM | – |
| COC(=O)c1cccc(N2CC(=CC(=O)OC(C)(C)C)C2)c1-n1cccc1 [Example 189, Methyl 3-(3-(2-(tert-butoxy)-2-oxovinyl)azetidin-1-yl)-2-(1H-pyrrol-1-yl)benzoate] | 10 to 30% | 10 to 30% | 75 to 100 µM | – |
| O=C(Nc1ccccc1)c1ccc(OC2CN(c3cccc(C(=O)O)c3-n3cccc3)C2)cc1 [Example 302, 3-(3-(4-(phenylcarbamoyl)phenoxy)azetidin-1-yl)-2-(1H-pyrrol-1-yl)benzoic acid] | 10 to 30% | 10 to 30% | > 100 µM | – |
| COC(=O)c1cccc(C#CN(Cc2ccccc2)S(C)(=O)=O)c1-n1cccc1 [Example 381, Methyl 3-((N-benzylmethylsulfonamido)ethynyl)-2-(1H-pyrrol-1-yl)benzoate] | 30 to 50% | 30 to 50% | > 100 µM | – |
| COC(=O)c1cccc(N2CC(Oc3ccc(C(=O)Nc4ccccc4)cc3)C2)c1-n1cccc1 [Example 263, Methyl 3-(3-(4-(phenylcarbamoyl)phenoxy)azetidin-1-yl)-2-(1H-pyrrol-1-yl)benzoate] | 10 to 30% | 10 to 30% | > 100 µM | – |
| COC(=O)c1cccc(N2CC(OC(=O)Nc3ccc(OC(F)(F)F)cc3)C2)c1-n1cccc1 [Example 153, Methyl 2-(1H-pyrrol-1-yl)-3-(3-(((4-(trifluoromethoxy)phenyl)carbamoyl)oxy)azetidin-1-yl)benzoate] | 10 to 30% | 10 to 30% | 75 to 100 µM | – |
| COC(=O)c1cccc(C#CN(C)S(=O)(=O)c2ccc(C)cc2)c1-n1cccc1 [Example 383] | 10 to 30% | – | < 50 µM | > 100 µM |
| COc1cccc(Oc2ccc(OC3CN(c4cccc(C(=O)O)c4-n4cccc4)C3)cc2)c1 [Example 197, 3-(3-(4-(3-methoxyphenoxy)phenoxy)azetidin-1-yl)-2-(1H-pyrrol-1-yl) benzoic acid] | 10 to 30% | 10 to 30% | > 100 µM | – |
| COC(=O)c1cccc(N2CC(OC(=O)Nc3ccc(OC)cc3OC)C2)c1-n1cccc1 [Example 146, Methyl 3-(3-(((2,4-dimethoxyphenyl)carbamoyl)oxy)azetidin-1-yl)-2-(1H-pyrrol-1-yl)benzoate] | 10 to 30% | 10 to 30% | > 100 µM | – |
| O=C(O)c1cccc(N2CC(Oc3ccc(CO)cc3)C2)c1-c1ccc(Cl)cc1 [Compound 58, 4′-chloro-6-(3-(4-(hydroxymethyl)phenoxy)azetidin-1-yl)-[1,1′-biphenyl]-2-formic acid] | < 10% | – | – | – |

| SMILES | inhibition at 50 µM [1, 3] | inhibition at 50 µM [1, 4] | EC50 ([2]; Homo sapiens, C6661, 72 h) | EC50 ([2]; 72 hours) |
| --- | --- | --- | --- | --- |
| COC(=O)c1cccc(N2CC(SC3CCCCC3)C2)c1-n1cccc1 [Example 350, Methyl 3-(3-(cyclohexylthio)azetidin-1-yl)-2-(1H-pyrrol-1-yl)benzoate] | < 10% | – | – | – |
| COC(=O)c1cccc(C#CN(Cc2ccc(C(F)(F)F)cc2)S(=O)(=O)c2ccc(C)cc2)c1-n1cccc1 [Example 346] | 10 to 30% | – | – | – |
| CC(C)Oc1ccc(OC2CN(c3cccc(C(=O)O)c3-n3cccc3)C2)cc1 [Example 110, 3-(3-(4-isopropoxyphenoxy)azetidin-1-yl)-2-(1H-pyrrol-1-yl)benzoic acid] | < 10% | – | – | – |
| CCNC(=O)c1ccc(OC2CN(c3cccc(C(=O)OC)c3-n3cccc3)C2)cc1 [Example 303, Methyl 3-(3-(4-(ethylcarbamoyl)phenoxy)azetidin-1-yl)-2-(1H-pyrrol-1-yl)benzoate] | 10 to 30% | – | – | – |
| COC(=O)c1cccc(N2CC(Oc3ccc(OCCN)c(OC)c3)C2)c1-n1cccc1 [Example 311, Methyl 3-(3-(4-(2-aminoethoxy)-3-methoxyphenoxy)azetidin-1-yl)-2-(1H-pyrrol-1-yl)benzoate] | 10 to 30% | – | – | – |
| COC(=O)c1cccc(C#CN(Cc2ccc3c(ccn3C)c2)S(=O)(=O)c2ccc3occc3c2)c1-n1cccc1 [Example 338, Methyl 3-((N-((1-methyl-1H-indol-5-yl)methyl)benzofuran-5-sulfonamido)ethynyl)-2-(1H-pyrrol-1-yl)benzoate] | < 10% | – | – | – |
| O=C(O)c1cccc(N2CC(OC(=S)Nc3ccc(Br)cc3)C2)c1-n1cccc1 [Example 157, 3-(3-(((4-bromophenyl)thiocarbamoyl)oxy)azetidin-1-yl)-2-(1H-pyrrol-1-yl)benzoic acid] | < 10% | – | – | – |
| Nc1c(C(=O)O)cccc1N1CC2(CN(c3ccccc3)C2)C1 [Compound 10, 2-amino-3-(6-phenyl-2,6-diazaspiro[3.3]heptan-2-yl)benzoic acid] | < 10% | – | – | – |
| COc1cccc(OC2CN(c3cccc(C(=O)O)c3-n3cccc3)C2)c1 [Compound 80, 3-(3-(3-methoxyphenoxy)azetidin-1-yl)-2-(1H-pyrrol-1-yl)benzoic acid] | < 10% | – | – | – |
| O=C(O)c1cccc(N2CC(NC(=S)Nc3ccc(Cl)cc3)C2)c1-n1cccc1 [Example 175, 3-(3-(3-(4-chlorophenyl)thioureido)azetidin-1-yl)-2-(1H-pyrrol-1-yl)benzoic acid] | < 10% | – | – | – |
| COC(=O)c1cccc(C#CN(Cc2ccc3c(ccn3C)c2)S(=O)(=O)c2ccc(C)cc2)c1-n1cccc1 [Example 316, Methyl 3-(((4-methyl-N-((1-methyl-1H-indol-5-yl)methyl)phenyl)sulfonamido)ethynyl)-2-(1H-pyrrol-1-yl)benzoate] | < 10% | – | – | – |
| O=C(Nc1ccc(OC2CN(c3cccc(C(=O)O)c3-n3cccc3)C2)cc1)Nc1ccccc1Cl [Example 136, 3-(3-(4-(3-(2-chlorophenyl)ureido)phenoxy)azetidin-1-yl)-2-(1H-pyrrol-1-yl)benzoic acid] | < 10% | – | – | – |
| O=C(O)c1cccc(N2CC(Oc3cc(F)c(Oc4ccccc4)c(F)c3)C2)c1-n1cccc1 [Example 205, 3-(3-(3,5-difluoro-4-phenoxyphenoxy)azetidin-1-yl)-2-(1H-pyrrol-1-yl)benzoic acid] | < 10% | – | – | – |
| CC(O)c1ccc(OC2CN(c3cccc(C(=O)O)c3-n3cccc3)C2)cc1 (centres unmarked) [Compound 90, 3-(3-(4-(1-hydroxyethyl)phenoxy)azetidin-1-yl)-2-(1H-pyrrol-1-yl)benzoic acid] | < 10% | – | – | – |
| COC(=O)c1cccc(N2CC(Oc3ccc(C#N)cc3)C2)c1-n1cccc1 [Compound 93, Methyl 3-(3-(4-cyanophenoxy)azetidin-1-yl)-2-(1H-pyrrol-1-yl)benzoate] | 30 to 50% | – | – | – |
| CCNC(=S)OCc1ccc(OC2CN(c3cccc(C(=O)O)c3-n3cccc3)C2)cc1 [Example 239] | < 10% | – | – | – |
